Data on 10 molecules can be found in ChEMBL document CHEMBL1201862, “PubChem BioAssay data set” (2004).

Test systems include SF-268; MDA-MB-231; CCRF-CEM; SW-620; 786-0; SK-MEL-5; MDA-N; LOX IMVI; U-251; SNB-75; MDA-MB-435; UACC-62; NCI/ADR-RES; OVCAR-8; SK-MEL-2; HT-29; UO-31; CAKI-1; SR; SF-539.
What all share (test): NCI tumour cell line growth inhibition, 48 h

The structures appear in SMILES notation.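 Step 1: Grow cells in 96-well plates. Step 2: Expose to compound for 48 hours at 5 concentrations. Step 3: Interpolate endpoints linearly; if unreached, use highest concentration. Abbreviation: GI50, concentration required for 50% inhibition of growth.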 The source made the active and inactive calls. Cut-off read from the data, not from the text of the source: active = GI50 up to about 1.1 µM and inactive = higher.

With `Cc1cc(NC[C@H](O)[C@H](O)[C@H](O)CO)c(Sc2cc(=O)[nH]c(=O)[nH]2)cc1C`, the GI50 in the assay on SF-268, in the assay on MDA-MB-231, in the assay with CCRF-CEM, in the assay on SW-620, with 786-0 and in the assay with SK-MEL-5 was > 62.5 µM (inactive) throughout. Also, the GI50 in the assay with MDA-N, with LOX IMVI, in the assay on U-251, in the assay with SNB-75, with MDA-MB-435 and in the assay on UACC-62 was > 62.5 µM (inactive) in each case. The GI50 with NCI/ADR-RES, in the assay with OVCAR-8, with SK-MEL-2, with HT-29, in the assay with UO-31 and in the assay on CAKI-1 was > 62.5 µM (inactive) throughout. The GI50 in the assay on SR was > 62.5 µM (inactive).

In the case of `O=C(CNC(c1ccccc1)(c1ccccc1)c1ccccc1)NC1CCCCC1NC(=O)CNC(c1ccccc1)(c1ccccc1)c1ccccc1` (configuration not stated), the GI50 with SF-268 is 24.2 µM (inactive); in the assay with MDA-MB-231, > 100 µM (inactive); in the assay with CCRF-CEM, > 100 µM (inactive); in the assay on SW-620, > 100 µM (inactive); in the assay with 786-0, 85.7 µM (inactive); with SK-MEL-5 it was > 100 µM (inactive). In addition, the GI50 was > 100 µM (inactive) with MDA-N; > 100 µM (inactive) in the assay on SF-539; > 100 µM (inactive) in the assay with LOX IMVI; 43 µM (inactive) with U-251; > 100 µM (inactive) in the assay on MDA-MB-435; > 100 µM (inactive) in the assay with UACC-62. Moreover, the GI50 with NCI/ADR-RES, in the assay on OVCAR-8, in the assay with SK-MEL-2, in the assay on HT-29, with UO-31 and in the assay on CAKI-1 was > 100 µM (inactive) throughout. In addition, the GI50 in the assay with SR was > 100 µM (inactive).

On to `Cc1cc(NS(=O)(=O)c2ccc(Nc3c4ccccc4nc4c(C(=O)NC(CO)(CO)CO)cccc34)cc2)no1`, for which the GI50 in the assay with SF-268 is 21.3 µM (inactive); in the assay with MDA-MB-231 it was 37.9 µM (inactive); with CCRF-CEM, 19.4 µM (inactive); in the assay with SW-620, 31 µM (inactive); with 786-0 it was 34.4 µM (inactive); with SK-MEL-5, 32.4 µM (inactive). Besides, the GI50 in the assay with MDA-N is 37.3 µM (inactive); with LOX IMVI it was 18.2 µM (inactive); with U-251 it was 34.2 µM (inactive); in the assay on SNB-75 it was 8.41 µM (inactive); with MDA-MB-435, 53.5 µM (inactive); with UACC-62, 22 µM (inactive). Also, the GI50 with NCI/ADR-RES is > 100 µM (inactive); in the assay with OVCAR-8, 49.7 µM (inactive); in the assay with SK-MEL-2, 19.4 µM (inactive); with HT-29, 38.7 µM (inactive); with UO-31, 48.6 µM (inactive); in the assay with CAKI-1, 42.2 µM (inactive). Moreover, the GI50 with SR is 26.3 µM (inactive).

As to `O=C(CCCN1CCc2[nH]c3cc(F)ccc3c2C1)c1ccc(F)cc1`, the GI50 with SF-268 is 13.1 µM (inactive); in the assay with MDA-MB-231, 12.5 µM (inactive); in the assay on CCRF-CEM, 12 µM (inactive); in the assay with SW-620, > 100 µM (inactive); in the assay on 786-0, 13.5 µM (inactive); in the assay on SK-MEL-5, 17.1 µM (inactive). Besides, the GI50 was 15.7 µM (inactive) with MDA-N; 16.7 µM (inactive) in the assay on SF-539; 3.95 µM (inactive) with LOX IMVI; 16.3 µM (inactive) with U-251; 11 µM (inactive) in the assay on SNB-75; 12.9 µM (inactive) with MDA-MB-435. Also, the GI50 is 12.7 µM (inactive) in the assay with UACC-62; 14.2 µM (inactive) in the assay with NCI/ADR-RES; 15.1 µM (inactive) in the assay with OVCAR-8; 18 µM (inactive) in the assay with SK-MEL-2; 6.11 µM (inactive) with HT-29; > 100 µM (inactive) in the assay with CAKI-1. Besides, the GI50 in the assay with SR was 8.49 µM (inactive).

In the case of `O=C1C(Cl)C(c2cccc(Br)c2)N1c1c(O)c(Cl)cc(Br)c1Cl` (configuration not stated), the GI50 is 14.8 µM (inactive) with SF-268; 17 µM (inactive) with MDA-MB-231; 14.6 µM (inactive) in the assay with CCRF-CEM; 19.3 µM (inactive) in the assay on SW-620; 23.4 µM (inactive) in the assay with 786-0; 14.2 µM (inactive) in the assay with SK-MEL-5. The GI50 in the assay with MDA-N is 18.5 µM (inactive); with SF-539, 15.6 µM (inactive); in the assay on LOX IMVI, 14.5 µM (inactive); in the assay on U-251 it was 12.7 µM (inactive); with MDA-MB-435, 15 µM (inactive); with UACC-62, 14.5 µM (inactive). Also, the GI50 in the assay on NCI/ADR-RES was 23.8 µM (inactive); with OVCAR-8 it was 30.3 µM (inactive); with SK-MEL-2, 7.08 µM (inactive); with HT-29, 5.81 µM (inactive); with UO-31, 16.8 µM (inactive); in the assay on CAKI-1, 19.3 µM (inactive). In addition, the GI50 with SR was 20.4 µM (inactive).

Consider `CCOc1cc(NC(C)=O)ccc1C(=O)NN1C(=O)/C(=C/c2ccc(Cl)cc2)N=C1c1ccccc1`, for which the GI50 in the assay on MDA-MB-231 was 33.7 µM (inactive); in the assay with CCRF-CEM it was 25 µM (inactive); in the assay on SW-620 it was > 100 µM (inactive); in the assay on 786-0 it was 74.1 µM (inactive); in the assay on SK-MEL-5 it was 24.2 µM (inactive); with MDA-N, 34.3 µM (inactive). The GI50 in the assay with SF-539 was 90.2 µM (inactive); in the assay on LOX IMVI it was 62.7 µM (inactive); in the assay with U-251, 55.8 µM (inactive); in the assay with SNB-75 it was 40.3 µM (inactive); in the assay with MDA-MB-435 it was 35.6 µM (inactive); in the assay with NCI/ADR-RES, 42 µM (inactive). The GI50 in the assay with OVCAR-8 was 34 µM (inactive); in the assay with SK-MEL-2, 28.3 µM (inactive); in the assay on HT-29, 52.6 µM (inactive); with UO-31, 34.9 µM (inactive); in the assay on CAKI-1, 43.1 µM (inactive); with SR, 46 µM (inactive).

For the molecule `CC(C)(C)c1ccc(O)c(C(O)c2ccccn2)c1` (configuration not stated), the GI50 is > 100 µM (inactive) in the assay with SF-268; > 100 µM (inactive) in the assay on MDA-MB-231; 38.2 µM (inactive) in the assay with CCRF-CEM; > 100 µM (inactive) with SW-620; 61.8 µM (inactive) with 786-0; > 100 µM (inactive) with MDA-N. For the same molecule, the GI50 with SF-539 was > 100 µM (inactive); with LOX IMVI, 54.8 µM (inactive); in the assay on U-251, 46.1 µM (inactive); in the assay on SNB-75, > 100 µM (inactive); in the assay on MDA-MB-435, > 100 µM (inactive); in the assay on UACC-62 it was 2.24 µM (inactive). For the same molecule, the GI50 was 48 µM (inactive) in the assay with NCI/ADR-RES; > 100 µM (inactive) in the assay with OVCAR-8; > 100 µM (inactive) in the assay on HT-29; 39.7 µM (inactive) in the assay with UO-31; > 100 µM (inactive) in the assay with CAKI-1; 70.1 µM (inactive) with SR.

Consider `CCOC(=O)C(Cc1ccc(N(CCCl)CCCl)cc1)NC(=O)C(Cc1ccccc1)NC=O` (configuration not stated), for which the GI50 is 0.0968 µM (active) in the assay on SF-268; 0.262 µM (active) in the assay with MDA-MB-231; 0.0526 µM (active) with CCRF-CEM; 0.184 µM (active) in the assay on SW-620; 0.116 µM (active) in the assay on 786-0; 0.219 µM (active) with SK-MEL-5. Moreover, the GI50 with MDA-N is 0.24 µM (active); in the assay on SF-539 it was 0.139 µM (active); in the assay on LOX IMVI it was 0.0713 µM (active); with U-251, 0.205 µM (active); with MDA-MB-435, 0.263 µM (active); in the assay on UACC-62, 0.094 µM (active). Also, the GI50 in the assay with NCI/ADR-RES was 0.338 µM (active); in the assay with OVCAR-8, 0.258 µM (active); in the assay on SK-MEL-2, 0.161 µM (active); in the assay on HT-29, 0.142 µM (active); in the assay with UO-31, 0.0689 µM (active); in the assay on CAKI-1, 0.0385 µM (active). Moreover, in the assay with SR, the GI50 was 0.00811 µM (active).

With `CCCCCCNC(=O)CCC(NC(=O)c1ccc(N(C)Cc2cnc3nc(N)nc(N)c3n2)cc1)C(=O)NCCCCCC` (configuration not stated), the GI50 was > 100 µM (inactive) in the assay on SF-268; 34.8 µM (inactive) with MDA-MB-231; > 100 µM (inactive) in the assay on CCRF-CEM; > 100 µM (inactive) with SW-620; > 100 µM (inactive) in the assay with 786-0; 7.41 µM (inactive) in the assay with SK-MEL-5. For the same molecule, the GI50 with MDA-N was 9.89 µM (inactive); with LOX IMVI it was 12.4 µM (inactive); in the assay with U-251, > 100 µM (inactive); in the assay with SNB-75 it was > 100 µM (inactive); in the assay on MDA-MB-435 it was > 100 µM (inactive); with UACC-62, 2.68 µM (inactive). For the same molecule, the GI50 with NCI/ADR-RES is > 100 µM (inactive); with OVCAR-8, > 100 µM (inactive); in the assay with SK-MEL-2, > 100 µM (inactive); in the assay on HT-29, 88.7 µM (inactive); with UO-31, > 100 µM (inactive); in the assay on CAKI-1 it was > 100 µM (inactive). Besides, in the assay on SR, the GI50 was > 100 µM (inactive).

In the case of `CN(C)Cc1cc(C(=O)/C=C/c2ccccc2Cl)cc(CN(C)C)c1O`, the GI50 is 15.9 µM (inactive) in the assay on SF-268; 12.2 µM (inactive) with MDA-MB-231; 3.4 µM (inactive) in the assay with CCRF-CEM; 4.86 µM (inactive) in the assay on SW-620; 7.36 µM (inactive) in the assay with 786-0; 11.8 µM (inactive) in the assay on SK-MEL-5. Also, the GI50 was 13 µM (inactive) with MDA-N; 15.5 µM (inactive) in the assay on SF-539; 3.33 µM (inactive) with LOX IMVI; 13.8 µM (inactive) in the assay with U-251; 5.51 µM (inactive) in the assay on SNB-75; 13.5 µM (inactive) in the assay with MDA-MB-435. Moreover, the GI50 was 12.8 µM (inactive) in the assay on NCI/ADR-RES; 10.1 µM (inactive) in the assay with OVCAR-8; 3.13 µM (inactive) in the assay on HT-29; 10.6 µM (inactive) in the assay with UO-31; 3.56 µM (inactive) with CAKI-1; 5.6 µM (inactive) in the assay with SR.
